Assay [1] addresses T1, MycC (Homo sapiens, UniProt P01106).
T1 construct: endogenous in cells; host or cells: L363
The experiment in a line: Degradation of MycC protein in L363 cells (JESS/Western blot). Format: cell-based. The settings on record: L-363 cells, 24 h; for Dmax at 0.5 µM: read-out: % Degradation of MycC (L-363) 24 h, 0.5 μM; for Dmax at 1 µM: read-out: % Degradation of MycC (L-363) 24 h, 1 μM; for Dmax at 3 µM: read-out: % Degradation of MycC (L-363) 24 h, 3 μM; for Dmax at 6 µM: read-out: % Degradation of MycC (L-363) 24 h, 6 μM. The protocol: (§1) For L363 cells (suspension), 1E6 cells were plated into each well of a 6 well plate. For SK—N-BE(2) cells (adherent), 5E5 cells were plated into each well of a 6 well dish. […] All compounds were diluted to 10 mM in DMSO. Cells were treated with the compound for 24 hrs, then for both cell types, media containing cells were removed from wells into a 15 ml centrifuge tube, and remaining adherent SK—N-BE(2) cells were also scraped from the wells into the appropriate tubes. Tubes were centrifuged, cells were washed with PBS then re-centrifuged to pellet cells. A RIPA buffer cocktail was added to the cells on ice for 5 mins. Cell lysates were clarified by centrifugation and stored at −80 degrees until required. BCA assay was performed on each lysate to determine the protein concentration. For validation studies of antibodies, lysates and antibodies were used at a number of concentrations (Lysates: 2, 1, 0.2 mg/ml; Antibodies: 1 in 50, 1 in 200 dilution). Once an appropriate lysate concentration and antibody concentration was determined, samples were screened in the JESS technology (Protein Simple, San Jose, CA—https://www.proteinsimple.com/jess.html). Target protein antibodies (n-myc and c-myc) were detected in the chemiluminescence channel and loading controls (tubulin and GAPDH) were detected using a Near Infra Red (NIR) labeled secondary antibody. For SK—N-EB2 adherent cells, 5E5 cells in 1.9 mls media were plated into 6 well dishes and incubated for 24 hrs. […] Cells were scrapped off the plate, centrifuged, washed with PBS, centrifuged, then a RIPA buffer cocktail added to the cells (100 ul), centrifuged and stored at −80 for later analysis. For L363 suspension cells, 1E6 cells were plated into 24 well dishes (950 ul media) and incubated for 24 hrs. […] Cells were aspirated into tubes, centrifuged, washed with PBS, centrifuged, then a RIPA buffer cocktail added to the cells (100 ul), centrifuged and stored at −80 for later analysis. For Western blot, a BCA (total protein) assay was run on all samples, these were then run in batches of 5 compounds plus control (DMSO) on each Western blot run—n-myc and c-myc were run in separate experiments in the chemiluminescence channel. Both tubulin and GAPDH were run as loading controls in all lanes in the near infra red channel.
For orientation: A western blot detects proteins with antibodies after separation by electrophoresis.

Assay [2] deals with T2, MycN (Homo sapiens, UniProt P04198).
T2 construct: endogenous in cells; host or cells: SK-N-BE(2)
T2 sequence (P04198 1-464): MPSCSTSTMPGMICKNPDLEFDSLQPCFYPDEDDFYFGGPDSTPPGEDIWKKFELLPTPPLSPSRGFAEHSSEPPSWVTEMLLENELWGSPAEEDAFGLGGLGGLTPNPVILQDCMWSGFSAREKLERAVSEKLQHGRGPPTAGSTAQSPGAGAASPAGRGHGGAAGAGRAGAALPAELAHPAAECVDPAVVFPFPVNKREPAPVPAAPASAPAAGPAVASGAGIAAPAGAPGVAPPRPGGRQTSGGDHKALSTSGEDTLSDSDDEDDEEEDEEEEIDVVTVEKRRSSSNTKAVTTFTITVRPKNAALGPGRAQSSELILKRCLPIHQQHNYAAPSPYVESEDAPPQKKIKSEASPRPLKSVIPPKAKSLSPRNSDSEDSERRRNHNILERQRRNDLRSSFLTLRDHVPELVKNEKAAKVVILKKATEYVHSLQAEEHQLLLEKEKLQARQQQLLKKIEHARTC
The experiment in a line: Degradation of MycN protein in SK-N-BE(2) cells (JESS/Western blot). Format: cell-based. The settings on record: SKNBE2 cells, 24 h; for Dmax at 6 µM: read-out: % Degradation of MycN (SKNBE2) 24 h, 6 μM; for Dmax at 0.5 µM: read-out: % Degradation of MycN (SKNBE2) 24 h, 0.5 μM; for Dmax at 1 µM: read-out: % Degradation of MycN (SKNBE2) 24 h, 1 μM; for Dmax at 3 µM: read-out: % Degradation of MycN (SKNBE2) 24 h, 3 μM. The protocol:
as §1

These results are taken from patent US20250177393A1, “MODULATORS OF MYC FAMILY PROTO-ONCOGENE PROTEIN” (Nalo Therapeutics, priority 2022, published 2025).

T1 sequence (P01106 whole entry): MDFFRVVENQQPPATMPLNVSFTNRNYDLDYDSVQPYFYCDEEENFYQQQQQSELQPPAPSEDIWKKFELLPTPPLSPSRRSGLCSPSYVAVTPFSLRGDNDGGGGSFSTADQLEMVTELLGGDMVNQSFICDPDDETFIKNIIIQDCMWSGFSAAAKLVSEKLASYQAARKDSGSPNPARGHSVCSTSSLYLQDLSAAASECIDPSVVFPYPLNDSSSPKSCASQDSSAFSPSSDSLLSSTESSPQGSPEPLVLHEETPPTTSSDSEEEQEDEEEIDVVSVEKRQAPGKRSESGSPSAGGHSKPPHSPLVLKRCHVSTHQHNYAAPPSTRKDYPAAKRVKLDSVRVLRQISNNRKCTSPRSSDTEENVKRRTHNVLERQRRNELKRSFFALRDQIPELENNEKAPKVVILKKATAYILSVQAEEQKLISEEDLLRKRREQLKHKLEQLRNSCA

Consider `c1cc(Nc2cc(C3CC3)[nH]n2)nc(NC2CC3(CNC3)C2)n1` [Compound 28, N^4-(5-cyclopropyl-1H-pyrazol-3-yl)-N^2-(2-azaspiro[3.3]heptan-6-yl)pyrimidine-2,4-diamine], for which, in assay [1], the Dmax at 0.5 µM was less than 20%, the Dmax at 1 µM was less than 20%, the Dmax at 3 µM was less than 20% and the Dmax at 6 µM lay within 20 to 49%. Besides, the Dmax at 6 µM in assay [2] was less than 20%.
As for `CN1CC2(CCC(Nc3nccc(Nc4cc(C5CC5)[nH]n4)n3)CC2)C1` [Compound 34, N^4-(5-cyclopropyl-1H-pyrazol-3-yl)-N^2-(2-methyl-2-azaspiro[3.5]nonan-7-yl)pyrimidine-2,4-diamine], in assay [1], the Dmax at 0.5 µM is less than 20%, the Dmax at 1 µM was 50 to 79%, the Dmax at 3 µM was 80 to 100% and the Dmax at 6 µM fell in the range of 80 to 100%. Further, in assay [2], the Dmax at 0.5 µM was in the range of 80 to 100%, the Dmax at 1 µM was 80 to 100%, the Dmax at 3 µM lay in the range of 80 to 100% and the Dmax at 6 µM was 80 to 100%.
As to `c1cc(Nc2cc(C3CC3)[nH]n2)nc(NC2CCNCC2)n1` [Compound 29], in assay [1], the Dmax at 0.5 µM was 50 to 79%, the Dmax at 1 µM was in the range of 80 to 100%, the Dmax at 3 µM was in the range of 80 to 100% and the Dmax at 6 µM fell in the range of 80 to 100%. Moreover, in assay [2], the Dmax at 1 µM was less than 20%, the Dmax at 3 µM is 80 to 100% and the Dmax at 6 µM is 80 to 100%.
For `F[C@@H]1CNCC[C@@H]1Nc1nccc(Nc2cc(C3CC3)[nH]n2)n1` [Compound 44, N^4-(5-Cyclopropyl-1H-pyrazol-3-yl)-N^2-[(3R,4S)-3-fluoro-4-piperidyl]pyrimidine-2,4-diamine], in assay [1], the Dmax at 0.5 µM is less than 20%, the Dmax at 1 µM lay within 20 to 49%, the Dmax at 3 µM was in the range of 20 to 49% and the Dmax at 6 µM is less than 20%. Also, in assay [2], the Dmax at 0.5 µM was less than 20%, the Dmax at 1 µM was 20 to 49%, the Dmax at 3 µM lay within 20 to 49% and the Dmax at 6 µM fell in the range of 50 to 79%.
Consider `c1cc(Nc2cc(C3CCCC3)[nH]n2)nc(NC2CCNCC2)n1` [Compound 32, N^4-(5-cyclopentyl-1H-pyrazol-3-yl)-N^2-(piperidin-4-yl)pyrimidine-2,4-diamine], for which, in assay [1], the Dmax at 0.5 µM is 50 to 79%, the Dmax at 1 µM was in the range of 50 to 79%, the Dmax at 3 µM fell in the range of 80 to 100% and the Dmax at 6 µM was in the range of 80 to 100%. Besides, in assay [2], the Dmax at 1 µM lay within 50 to 79%, the Dmax at 3 µM was 80 to 100% and the Dmax at 6 µM was in the range of 80 to 100%.
Consider `CN1CCC(C(=O)Nc2nccc(Nc3cc(C4CC4)[nH]n3)n2)CC1` [Compound 35, N-(4-((5-cyclopropyl-1H-pyrazol-3-yl)amino)pyrimidin-2-yl)-1-methylpiperidine-4-carboxamide], for which, in assay [1], the Dmax at 3 µM was less than 20% and the Dmax at 6 µM was less than 20%. Moreover, in assay [2], the Dmax at 0.5 µM was in the range of 20 to 49%, the Dmax at 1 µM was less than 20%, the Dmax at 3 µM fell in the range of 20 to 49% and the Dmax at 6 µM lay in the range of 20 to 49%.
Turning to `CN1CC2(CCC(N(C)c3nccc(Nc4cc(C5CC5)[nH]n4)n3)CC2)C1` [Compound 49, N4-(5-Cyclopropyl-1H-pyrazol-3-yl)-N2-methyl-N2-(2-methyl-2-azaspiro[3.5]nonan-7-yl)pyrimidine-2,4-diamine], in assay [1], the Dmax at 0.5 µM lay in the range of 50 to 79%, the Dmax at 1 µM fell in the range of 80 to 100%, the Dmax at 3 µM was 80 to 100% and the Dmax at 6 µM lay in the range of 80 to 100%. In assay [2], the Dmax at 0.5 µM is 50 to 79%, the Dmax at 1 µM was 80 to 100%, the Dmax at 3 µM was in the range of 80 to 100% and the Dmax at 6 µM was 80 to 100%.
Take `c1cc(Nc2cc(C3CCCC3)[nH]n2)nc(NC2CC3(CNC3)C2)n1` [Compound 30, N^4-(5-cyclopentyl-1H-pyrazol-3-yl)-N^2-(2-azaspiro[3.3]heptan-6-yl)pyrimidine-2,4-diamine]: in assay [1], the Dmax at 0.5 µM was 80 to 100%, the Dmax at 1 µM fell in the range of 80 to 100%, the Dmax at 3 µM fell in the range of 80 to 100% and the Dmax at 6 µM is 80 to 100%. Further, in assay [2], the Dmax at 0.5 µM is less than 20%, the Dmax at 1 µM is less than 20% and the Dmax at 6 µM was 50 to 79%.
Turning to `F[C@H]1CNCC[C@H]1Nc1nccc(Nc2cc(C3CC3)[nH]n2)n1` [Compound 41, N4-(5-Cyclopropyl-1H-pyrazol-3-yl)-N2-[(3S,4R)-3-fluoro-4-piperidyl]pyrimidine-2,4-diamine], in assay [1], the Dmax at 6 µM was in the range of 80 to 100%. In addition, in assay [2], the Dmax at 0.5 µM is less than 20%, the Dmax at 1 µM was less than 20%, the Dmax at 3 µM was in the range of 20 to 49% and the Dmax at 6 µM fell in the range of 80 to 100%.
In the case of `CN1CC2(CNc3nccc(Nc4cc(C5CC5)[nH]n4)n3)CC1C2` [Compound 4, N^4-(5-Cyclopropyl-1H-pyrazol-3-yl)-N^2-((2-methyl-2-azabicyclo[2.1.1]hexan-4-yl)methyl)pyrimidine-2,4-diamine], in assay [1], the Dmax at 1 µM is less than 20%, the Dmax at 3 µM is 20 to 49% and the Dmax at 6 µM was less than 20%. In assay [2], the Dmax at 3 µM was less than 20% and the Dmax at 6 µM is 20 to 49%.
